The results in this text go back to patent US8575173B2, “Piperazinyl 3-aminopyrrolidine derivatives as a CCR2 antagonists” (Yang Ji Chemical Co., Ltd., priority 2009, dated 2013).

Data set [1] concerns the target T1, CCR2b (Homo sapiens, UniProt P41597).
T1 construct: expressed in transfected cells; host or cells: HEK293
T1 sequence (P41597 1-360 isoform P41597-2): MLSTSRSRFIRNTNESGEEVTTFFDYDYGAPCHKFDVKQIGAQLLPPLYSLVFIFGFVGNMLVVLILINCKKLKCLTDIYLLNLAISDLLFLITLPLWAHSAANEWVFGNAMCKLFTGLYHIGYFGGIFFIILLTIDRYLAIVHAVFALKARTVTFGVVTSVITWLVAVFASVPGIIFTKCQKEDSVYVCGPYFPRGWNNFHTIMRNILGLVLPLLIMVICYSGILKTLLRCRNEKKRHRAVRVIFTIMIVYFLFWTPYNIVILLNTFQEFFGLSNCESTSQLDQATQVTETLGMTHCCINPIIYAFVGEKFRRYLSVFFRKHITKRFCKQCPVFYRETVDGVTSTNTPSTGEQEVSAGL
As to the kind of experiment: CCR2 inhibitory effect on Ca2+ flux (HEK293/CCR2b, MCP-1 stimulated). The class given is cell-based. The conditions noted are these: HEK293/CCR2b cells, MCP-1 added; read-out: Blocking Ca^2+ flux, IC50. The procedure:
After seeding CCR2b transformed cell (HEK293/CCR2b) on black-clear bottom plate coated with lysine, it was adapted for 24 hours and exchanged into serum free media (DMEM) and allowed to cultivate overnight. Next day After the compound is treated with Flour-4 (calcium dye, Molecular probe) and cultivated for 50 min on incubator, it is washed calcium-free buffer solution and pretreated for 10-15 min. It is added with MCP-1 and its signal is measured with FlexStation^II (Molecular device).

The target in data set [2] is CYP2C19 (Homo sapiens, UniProt P33261). As to the kind of experiment: CYP450 inhibitory activity, CYP2C19. The class given is in vitro ADME. The note with it: CYP2C19 enzyme membrane, 10 μM compound, read-out: Inhibition of CYP450, % @10 μM: 2C19. The procedure:
(§1) It is analyzed inhibitory activity assay on 5 types (CYP3A4, 2C9, 2C19, 2D6, 1A2) of 11 types CYP450, drug metabolic enzyme. Luciferin detection reagent is dissolved in buffer solution and each CYP enzyme membrane is prepared.
(§2) 4-fold concentration of the compound in 6.25 μl is prepared, and added to 6.25 μl mixture containing enzyme and proper different substrate depending on enzyme types, and kept for 10 min. After reacting with 12.5 μl NADPH regeneration reagent of CYP enzyme for 30 min, adding 25 μl luciferin detection reagent and keeping for 20 min, luminescence is measured at Fusion α.

For data set [3], the target named is CYP2D6 (Homo sapiens, UniProt P10635). As to the kind of experiment: CYP450 inhibitory activity, CYP2D6. Format: in vitro ADME. The note with it: CYP2D6 enzyme membrane, 10 μM compound, read-out: Inhibition of CYP450, % @10 μM: 2D6. Here is the method: Luciferin detection reagent is dissolved in buffer solution and each CYP enzyme membrane is prepared. […] After reacting with 12.5 μl NADPH regeneration reagent of CYP enzyme for 30 min, adding 25 μl luciferin detection reagent and keeping for 20 min, luminescence is measured at Fusion α.
Chain of CYP2D6 (P10635 whole entry, the tested form may be a part): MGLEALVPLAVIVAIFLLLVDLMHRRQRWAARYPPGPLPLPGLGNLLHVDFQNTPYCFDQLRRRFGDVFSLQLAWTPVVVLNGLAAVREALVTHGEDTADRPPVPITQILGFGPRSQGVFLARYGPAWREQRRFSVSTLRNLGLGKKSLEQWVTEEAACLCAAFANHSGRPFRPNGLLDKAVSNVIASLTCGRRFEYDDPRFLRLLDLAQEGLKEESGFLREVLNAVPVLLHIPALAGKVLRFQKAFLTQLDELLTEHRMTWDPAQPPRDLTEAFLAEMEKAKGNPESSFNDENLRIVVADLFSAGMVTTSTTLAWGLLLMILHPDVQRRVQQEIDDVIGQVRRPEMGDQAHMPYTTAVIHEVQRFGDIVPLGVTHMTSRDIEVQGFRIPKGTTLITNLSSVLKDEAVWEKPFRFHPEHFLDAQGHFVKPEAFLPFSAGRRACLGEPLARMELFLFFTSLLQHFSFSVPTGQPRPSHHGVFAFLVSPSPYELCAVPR

In data set [4] the test system is NIH 3T3. As to the kind of experiment: Cytotoxicity (cell viability, MTS assay), NIH 3T3. Format: cell-based. The note with it: 10 μM compound, vs control group. The text has this:
(§3) The MTS (3-(4,5-dimethylthiazol-2-yl)-5-(3-carboxymethoxyphenyl)-2-(4-sulfophenyl)-2H-tetrazolium, inner salt, Promega, U.S.A) assay to THP-1 cell is used to measure cytotoxicity of test compound. The MTS assay is applicable to sensitively measure viability, multiplication and activity of cell and is a method using transformation the yellow MTS into insoluble formazan by dehydrogenase of mitochondria during metabolism of viable cell. The THP-1 cell is proliferated on RPMI-1640 supplemented with 10% fetal bovine serum under 37° C., at 5% CO2 incubator. Cell density is maintained around 0.5×10^6 cells/ml. THP-1 cell is poured into 96-well plate in 1×10^6 cell/ml and treating with 1, 10 μM concentration of test compound, after 24 hours 20 μl of 317 μg/ml MTS is treated to 96-well plate. Cell viability as the he absorbance of crystalline formazan of test group to control group observed at 490 nm using ELISA reader after 1 hour is calculated by following mathematical formula 2. Cell viability(%)=(Absorbance of experimental wells)/(Absorbance of control wells))×100 [Mathematical Formula 2]
(§4) The cell cytotoxicity test is performed to many cell lines, for example HepG2, NIH3T3, CHO-K1, HEK293, in addition to THP-1 illustrated above, and test procedures related to these are same or similar as described method above.
(Formazan colour is commonly taken as a measure of viable cells.)

Data set [5] concerns CHO-K1. The data set can be described thus: Cytotoxicity (cell viability, MTS assay), CHO-K1. The note with it: 10 μM compound, vs control group. The class given is cell-based.
Excerpt: as §3, §4

Data set [6] deals with CYP2C9 (Homo sapiens, UniProt P11712). The data set can be described thus: CYP450 inhibitory activity, CYP2C9. The class given is in vitro ADME. The conditions noted are these: CYP2C9 enzyme membrane, 10 μM compound, read-out: Inhibition of CYP450, % @10 μM: 2C9. Here is the method:
as §1, §2

Data set [7] addresses CYP3A4 (Homo sapiens, UniProt P08684). The data set can be described thus: CYP450 inhibitory activity, CYP3A4. The conditions noted are these: CYP3A4 enzyme membrane, 10 μM compound, read-out: Inhibition of CYP450, % @10 μM: 3A4. Format: in vitro ADME. Here is the method:
as §1, §2

Data set [8] addresses T2, CCR2 (Homo sapiens, UniProt P41597). The data set can be described thus: Inhibitory effect on MCP-1 induced chemotaxis of THP-1 cells. Format: cell-based. On the set-up: endogenous in cells; host or cells: THP-1. The note with it: hMCP-1 10 ng/ml, 2 hours, read-out: Inhibition of Chemotaxis, IC50. The procedure: Antagonistic effect on the compound on CCR2 activity was measured by leukocyte chemotaxis assay using a proper cell line.
The used cell line is THP-1 and it is proliferated RPMI-1640 supplemented with 10% fetal calf serum under 37° C. at 5% CO2 incubator. Cell density was maintained near about 0.5×10^6 cells/ml.
Cell is allowed to have chemotaxis under 37° C., 5% CO2 incubator for 2 hours. After incubating for 2 hours, cells which is not moved from the upper side of filter are removed by wiping the filter with cotton swab.
The cells moved to lower chamber was measured using fluorescent plate reader under λexcite=480 nm, λexit=520 nm.
The chemotaxis may be described as chemotaxis coefficient, ratio between mean value of cells moved under existence of MCP-1 and mean value of cells moved under absence of chemokine.

Data set [9] concerns the target T3, CYP1A2 (Homo sapiens, UniProt P05177).
T3 sequence (P05177 1-516): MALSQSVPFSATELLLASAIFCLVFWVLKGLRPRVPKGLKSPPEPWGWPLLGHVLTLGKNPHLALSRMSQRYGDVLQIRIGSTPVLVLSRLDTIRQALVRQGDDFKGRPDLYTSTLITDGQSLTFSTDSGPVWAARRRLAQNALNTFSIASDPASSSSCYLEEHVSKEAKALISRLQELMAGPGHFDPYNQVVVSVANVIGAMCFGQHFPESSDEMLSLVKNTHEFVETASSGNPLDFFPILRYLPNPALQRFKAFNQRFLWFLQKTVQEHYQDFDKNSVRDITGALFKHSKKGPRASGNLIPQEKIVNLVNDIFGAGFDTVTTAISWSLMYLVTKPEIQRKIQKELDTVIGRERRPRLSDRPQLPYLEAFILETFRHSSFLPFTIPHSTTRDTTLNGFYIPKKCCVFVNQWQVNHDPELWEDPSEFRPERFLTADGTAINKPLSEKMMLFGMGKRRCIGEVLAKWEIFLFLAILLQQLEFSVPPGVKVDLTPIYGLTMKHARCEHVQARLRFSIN
The data set can be described thus: CYP450 inhibitory activity, CYP1A2. Format: in vitro ADME. The conditions noted are these: CYP1A2 enzyme membrane, 10 μM compound, read-out: Inhibition of CYP450, % @10 μM: 1A2. Here is the method: as §1, §2

Data set [10] relates to HepG2. The data set can be described thus: Cytotoxicity (cell viability, MTS assay), HepG2. The class given is cell-based. The note with it: 10 μM compound, vs control group.
Excerpt: as §3, §4

In data set [11] the test system is HEK 293. As to the kind of experiment: Cytotoxicity (cell viability, MTS assay), HEK 293. The note with it: 10 μM compound, vs control group. Format: cell-based.
Excerpt: as §3, §4

The target of data set [12] is T2, CCR2. As to the kind of experiment: CCR2 receptor protein binding assay ([125I]-MCP1). On the set-up: purchased Perkinelmer, USA; host or cells: CHO cell membranes. The note with it: [125I]-MCP1 binding, CCR2 membrane expressed in CHO cell; read-out: Affinity to CCR2 receptor, IC50. Here is the method:
The buffer used for receptor binding assay is 50 mM Hepes (pH 7.4) containing 5 mM MgCl2, 1 mM CaCl2 and 0.5% BSA. The resultant reaction mixture in final volume 0.25 ml is prepared by adding CCR2 membrane (10 μg/well), [^125I]-MCP1 to test drug in 96-well plate on [^125I]-MCP1 binding assay and is cultivated on 27° C. for 60 min.
After incubation, reaction is terminated with fast filtering through Wallac filtermat A GF/C glass fiber filter (Wallac, Finland) pre-wetted in 0.5% PEI using Inotech harvester (Inotech) and is washed in cold 50 mM Tris-HCl (pH 7.4) buffer solution. After filter is covered with MeltiLex, it is sealed in sample bag, dried on oven, and counted using MicroBeta Plus (Wallac).
[…] is used in non-specific binding measurement.

T2 sequence (P41597 whole entry): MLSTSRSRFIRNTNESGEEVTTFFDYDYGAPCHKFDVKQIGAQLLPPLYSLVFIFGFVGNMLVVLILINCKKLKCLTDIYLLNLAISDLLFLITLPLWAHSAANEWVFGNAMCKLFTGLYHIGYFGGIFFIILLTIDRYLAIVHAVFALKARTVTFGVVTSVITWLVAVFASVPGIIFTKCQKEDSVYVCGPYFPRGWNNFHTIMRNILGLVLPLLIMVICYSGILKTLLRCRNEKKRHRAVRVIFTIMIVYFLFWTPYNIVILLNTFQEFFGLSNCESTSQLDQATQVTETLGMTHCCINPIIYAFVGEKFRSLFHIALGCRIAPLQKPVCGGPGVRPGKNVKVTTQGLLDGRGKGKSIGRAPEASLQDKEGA
Chain of CYP2C19 (P33261 whole entry): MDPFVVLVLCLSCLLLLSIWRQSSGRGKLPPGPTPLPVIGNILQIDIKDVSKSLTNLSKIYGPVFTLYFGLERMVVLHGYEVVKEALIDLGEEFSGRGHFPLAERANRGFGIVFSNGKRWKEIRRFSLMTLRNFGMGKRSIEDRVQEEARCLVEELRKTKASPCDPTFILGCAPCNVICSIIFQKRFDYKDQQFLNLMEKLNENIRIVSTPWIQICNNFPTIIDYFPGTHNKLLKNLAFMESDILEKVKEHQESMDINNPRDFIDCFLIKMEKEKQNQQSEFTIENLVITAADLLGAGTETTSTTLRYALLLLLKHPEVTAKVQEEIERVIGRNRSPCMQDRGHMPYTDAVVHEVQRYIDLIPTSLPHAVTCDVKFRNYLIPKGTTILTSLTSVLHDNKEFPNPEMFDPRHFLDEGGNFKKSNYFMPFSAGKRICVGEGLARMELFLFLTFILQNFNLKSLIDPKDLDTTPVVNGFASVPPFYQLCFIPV
Chain of CYP2C9 (P11712 whole entry): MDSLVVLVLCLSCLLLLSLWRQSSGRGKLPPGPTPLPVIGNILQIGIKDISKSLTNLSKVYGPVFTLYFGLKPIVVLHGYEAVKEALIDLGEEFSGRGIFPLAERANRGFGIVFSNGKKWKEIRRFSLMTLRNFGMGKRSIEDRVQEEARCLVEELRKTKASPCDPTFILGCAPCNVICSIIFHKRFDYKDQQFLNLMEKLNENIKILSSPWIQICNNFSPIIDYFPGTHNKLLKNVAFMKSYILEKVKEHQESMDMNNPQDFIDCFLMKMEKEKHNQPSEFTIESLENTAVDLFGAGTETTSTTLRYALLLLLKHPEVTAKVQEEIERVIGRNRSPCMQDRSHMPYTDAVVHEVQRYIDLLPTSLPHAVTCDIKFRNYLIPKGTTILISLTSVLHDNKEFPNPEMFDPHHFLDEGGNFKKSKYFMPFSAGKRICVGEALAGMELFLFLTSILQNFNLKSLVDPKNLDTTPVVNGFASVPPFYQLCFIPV
Chain of CYP3A4 (P08684 whole entry): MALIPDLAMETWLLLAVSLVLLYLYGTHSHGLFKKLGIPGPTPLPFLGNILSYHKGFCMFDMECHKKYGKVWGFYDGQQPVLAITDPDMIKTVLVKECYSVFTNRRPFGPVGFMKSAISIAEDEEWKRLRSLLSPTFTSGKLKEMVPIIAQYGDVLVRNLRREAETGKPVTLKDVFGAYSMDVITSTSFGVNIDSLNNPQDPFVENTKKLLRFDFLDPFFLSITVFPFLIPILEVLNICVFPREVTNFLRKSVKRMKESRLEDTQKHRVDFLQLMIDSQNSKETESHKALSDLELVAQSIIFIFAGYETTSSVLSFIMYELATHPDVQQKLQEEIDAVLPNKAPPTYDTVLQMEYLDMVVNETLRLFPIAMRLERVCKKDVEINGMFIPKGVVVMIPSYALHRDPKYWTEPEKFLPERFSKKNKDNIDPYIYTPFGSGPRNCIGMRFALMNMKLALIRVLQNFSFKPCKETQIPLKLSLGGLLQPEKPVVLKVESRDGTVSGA

As to `O=C(CNC(=O)c1cccc(C(F)(F)F)c1)N[C@@H]1CCN(CCN2CCN(C(=O)c3ccccc3)CC2)C1` [Example 6, N-{[1-(2-(4-benzoylpiperazine-1-yl)ethyl)-pyrrolidine-(3R)-yl-carbamoyl]-methyl}-3-trifluoromethylbenzamide], the IC50 in [1] was 18 nM; in data set [8], 9 nM; in data set [12] it was 990 nM. Further, the inhibition at 30 min, 10 µM in [2] is 14.2%; in data set [3], 8.5%; in data set [6] it was 23.6%; in [7] it was 6.5%; in data set [9], 23.5%. Also, the “Cell viability, % @10 μM: NIH 3T3” value in [4] was 70.6%. In addition, the “Cell viability, % @10 μM: CHO-K1” value in [5] stood at 84.6%. For the same compound, the “Cell viability, % @10 μM: HepG2” value in [10] came to 73.5%. Moreover, in [11], the “Cell viability, % @10 μM: HEK 293” value amounted to 59.3%.

Turning to `Cc1ccccc1C(=O)N1CCN(CCN2CC[C@@H](NC(=O)CNC(=O)c3cccc(C(F)(F)F)c3)C2)CC1` [Example 7, N-{[1-(2-(4-(2-methylbenzoyl)piperazine-1-yl)ethyl)-pyrrolidine-(3R)-yl-carbamoyl]-methyl}-3-trifluoromethylbenzamide], the IC50 in data set [1] was 120 nM; in data set [8], 70 nM; in data set [12], 4440 nM. The inhibition at 30 min, 10 µM in data set [2] is 9.5%; in data set [3], -3.5%; in data set [6], 19%; in data set [7], 28.2%; in data set [9], 6.6%. Moreover, the “Cell viability, % @10 μM: NIH 3T3” value in data set [4] is given as 73.0%. For the same compound, the “Cell viability, % @10 μM: CHO-K1” value in data set [5] stood at 80.1%. Moreover, the “Cell viability, % @10 μM: HepG2” value in [10] came out at 105.8%. In addition, in [11], the “Cell viability, % @10 μM: HEK 293” value turned out to be 66.9%.

For orientation: IC50 means the midpoint of a concentration-inhibition curve. The inhibition is the relative decrease from the control value, in per cent.
